Reference: patent publication EP4417190A1, “CYCLIC PEPTIDES WITH ANTI-AGING EFFICACY” (Lipotrue, S.L., priority 2023, dated 2024)
Ends that are not written are not given here. Peptide text beside a SMILES is read from it.

Legend:
CALR = assay: RT-qPCR expression of CALR gene in HEKa; conditions: 0.01 mg/mL, 24 hours, qPCR (Table 5)
Method: HEKa cells were incubated in the presence of 0.01 mg/mL cycled peptide B for 24 hours and HDFa cells were treated with 0.05 mg/mL of cycled peptide B for 6 h. Then, cells were lysed, and RNA was extracted (RNeasy mini kit, Qiagen). Purified RNAs were retro-transcribed (High-capacity cDNA reverse transcription kit, Applied Biosystems). RT-qPCR was performed with the panel of TaqMan assay probes (Thermo Fisher Scientific) using StepOne plus Real time PCR instrument. […] The obtained data were analyzed using the ΔΔCt method, which provides the target gene expression values as fold changes in the treated sample compared with an untreated basal sample. Both samples were normalized with the relative expression of the housekeeping gene GAPDH.
Additionally, expression of CALR after treatment with 0.01 mg/mL of cycled peptides A and B for 24 hours in HEKa cells was analyze by qPCR as described in example 3.

[1] = MTT assay, toxicity on HDFa cells; type: cell-based; conditions: human, normalized to non-treated cells, read-out: Cell viability
Method: (§1) Toxicity of cycled peptides A and B was analyzed on human dermal fibroblasts (HDFa) and adult human epidermal keratinocytes HEKa cells by MTT assay. A stock solution of the peptide was prepared in distilled water at 25 mg/mL. This stock solution was further diluted to obtain the final working concentrations (0.001, 0.005, 0.01, 0.05, 0.1 and 0.5 mg/mL) in the corresponding culture medium. Untreated cells were used as negative control samples (Basal).
(§2) Briefly, HEKa and HDFa cells were seeded in 96-well plates at a concentration of 1×10^5 cells/mL in a final volume of 200 µL of medium (20,000 cells/well). HEKa cells were incubated in Dermal Cell Basal Medium supplemented with the Keratinocytes Growth Kit; and HDFa cells were cultured in Medium 106 supplemented with 2% of LSGS. Cells were incubated at 37°C, 5% CO2 and saturated humidity.
(§3) After 24 h of incubation, cells were treated with different concentrations of each peptide (0.001, 0.005, 0.01, 0.05, 0.1 and 0.5 mg/mL) in triplicates, for MTT evaluation. After 24 h of treatment with the peptide, medium was completely removed, and 100 µL of 0.5 mg/mL MTT solution in supplemented medium were added to each well and cells were incubated at 37°C for 3 h. After incubating with MTT, the medium of each well was aspirated and 150 µL of DMSO were added in order to solubilise the formazan crystals formed. The plates were placed on a shaker for 5 minutes for complete solubilisation of the crystals and then the absorbance at 570 nm of each well was determined, using the microplate reader Multiskan FC, which is directly proportional to the number of living cells in culture.
(§4) Absorbance values were normalized using the data obtained for non-treated cells (control), obtaining the % of viability shown in Tables 1 and 2. Each condition was performed in triplicate (n=3) in 3 independent experiments (N=3).
(§5) Concentrations of peptide for which viability is above 80% are considered safe for efficacy testing. On the contrary, concentrations for which viability goes below 80% are considered potentially toxic and are not used for efficacy testing purposes. Table 1: Toxicity of cycled peptides on HDFa cells.

Caspase 3 (CASP3) = assay: Caspase 3 activity under BFA-induced endoplasmic reticulum stress in HEKa (Caspase-Glo 3/7); type: cell-based, human; conditions: BFA-induced ER stress, 24 h, vs BFA-treated cells (Figure 5)
Method: Caspase 3 (CASP3) is a protein member of the cysteine-aspartic acid protease family. Sequential activation of caspases plays a central role in the execution-phase of cell apoptosis. It was evaluated the effect of the cycled peptide B on the caspase 3 activity in human epidermal keratinocytes from adult (HEKa) subjected to endoplasmic reticulum (ER) stress.
HEKa cells were seeded in a black 96-well plate at a density of 18.000 cell/well in Dermal Cell Basal Medium (DCBM) and incubated at 37 °C in a humidified atmosphere with 5% CO2. After 24 h of incubation, cells were treated with 0.15 µg/mL BFA alone or in the presence of 0.005 mg/mL of the cycled peptide B and returned to the incubator for 24 h more. Untreated cells (Basal) were used as negative control samples. 24 hours after treatment, caspase 3 activity was evaluated using Caspase-Glo® 3/7 Assay System, following manufacturer instructions.
Each condition was performed at least in triplicates (n=3) in three independent experiments (N=3). For all data, mean values of relative fluorescence units (RFU) of the different experiments and SEM values are shown. All data was normalized as follows: % vs BFA = (RFU treated cells)/(RFU BFA treated cells) × 100 [formula]
Statistical data analysis was performed using Student t-test by comparison of % activity from test substance vs BFA-treated cells, *p<0.05, **p<0.01, ***p<0.001.

[2] = MTT assay, toxicity on HEKa cells; type: cell-based; conditions: human, normalized to non-treated cells, read-out: Cell viability
Method: as §1, §2, §3, §4, §5

Molecule | CALR expression, Effect (CALR) | viability at 24 h ([1]; 0.001 mg/mL peptide) [%] | viability at 24 h ([1]; 0.005 mg/mL peptide) [%] | viability at 24 h ([1]; 0.01 mg/mL peptide) [%] | viability at 24 h ([1]; 0.05 mg/mL peptide) [%] | viability at 24 h ([1]; 0.1 mg/mL peptide) [%] | viability at 24 h ([1]; 0.5 mg/mL peptide) [%] | caspase 3 activity (Caspase 3 (CASP3)) | viability at 24 h ([2]; 0.001 mg/mL peptide) [%] | viability at 24 h ([2]; 0.005 mg/mL peptide) [%] | viability at 24 h ([2]; 0.01 mg/mL peptide) [%] | viability at 24 h ([2]; 0.05 mg/mL peptide) [%] | viability at 24 h ([2]; 0.1 mg/mL peptide) [%] | viability at 24 h ([2]; 0.5 mg/mL peptide) [%] | CALR expression, Ratio (CALR; Basal = 1.00)
FWHALR [Linear peptide B, reference compound] | No effect |  |  |  |  |  |  |  |  |  |  |  |  |  | 
CC(C)C[C@@H]1NC(=O)[C@H](C)NC(=O)[C@H](CCCNC(=N)N)NC(=O)[C@H](Cc2ccccc2)NC(=O)[C@H](Cc2c[nH]c3ccccc23)NC(=O)[C@H](Cc2c[nH]cn2)NC1=O [Peptide A, cyclo-Trp-Phe-Arg-Ala-Leu-His] (cyclo(ALHWFR)) | Upregulation | 101 | 103 | 94.5 | 103 | 92.3 | 81.5 | significantly reduce | 103 | 108 | 109 | 93.8 | 88.3 | 75 | 1.34
